What was measured:
monkey liver acylamidase = assay: Susceptibility to monkey liver acylamidase (crude liver extract, 5'-DFCR formed by HPLC); format: in vitro ADME; details: tetrahydrouridine 0.4 mM, 37° C., 60 min
Experimental: (§1) The N^4 -(substituted-oxycarbonyl)-5'-DFCRs of the invention were incubated with crude extracts of monkey and human liver in the presence of an inhibitor of cytidine deaminase, tetrahydrouridine (0.4 mM) at 37° C. for 60 min. Thereafter, the product 5'-DFCR was separated by HPLC and the enzyme susceptibility was calculated from the amount of the product.

[1] = Toxicity (LD50), oral administration daily for 21 days in mice; details: mouse, in vivo
Experimental: The toxicity (LD50) of the representative compounds (Example 13,14, and 17) of the present invention was examined by oral administration daily for 21 days in mice. The representative LD50 values obtained from the experiments were more than 500 mg/kg/day.

[2] = test system: CXF280 Human Colon Carcinoma; assay: Antitumor testing against human colon cancer xenograft CXF280; format: in vivo, BALB/c nu/nu mice; set-up: key to Fecal observation: N: normal feces; L: loose passage
Experimental: CXF280 tumor (about 2×2 mm piece) was implanted subcutaneously into BALB/c nu/nu mice (21-22 g) on day 0. When tumor volume became 100 mm^3 on day around 14, the compounds of the invention were orally administered daily for 3 weeks. At one day after the last treatment, tumor volume was calculated.
The percent inhibition of tumor growth given in Table 3 above was calculated from the formula:
% Inhibition ={1-(T-V0)/(C-V0)}×100
V0 =volume of tumor before treatment was started, T=volume of the tumors from the treated group, C=volume of the tumor from the control group.

colon 26 carcinoma = assay: Antitumor and anticachexia activity against mouse colon 26 carcinoma; format: in vivo, Mice (CDF1); details: for Serum IAP: IAP = immunosuppressive acidic protein
Experimental: Antitumor activity of a representative compound (Example 13), of the present invention, was measured as follows. Mice (CDF1) were subcutaneously inoculated with colon 26 carcinoma (10^6 cells) on day 0. The compound was administered daily for 7 times from day 21 when the animals became cachectic. One day after the last treatment, tumor weight gain, carcass weight gain, adipose tissue weight, concentrations of glucose and the acute phase reactant IAP (immunosuppressive acidic protein) in the serum were measured.

[3] = Pharmacokinetic profiles in monkeys (plasma 5'-DFUR after oral administration); format: in vivo; details: cynomolgous monkeys, metabolite 5'-DFUR in plasma
Experimental: The compounds of formula (I) were orally administered into groups of 2 to 5 cynomolgous monkeys (3-4 kg). At various times after the administration, plasma was taken for determination of blood concentrations of intact molecules and their active metabolite 5'-DFUR. Metabolites in the plasma were separated by HPLC and their concentrations were calculated.

human liver acylamidase = assay: Susceptibility to human liver acylamidase (crude liver extract, 5'-DFCR formed by HPLC); format: in vitro ADME; details: tetrahydrouridine 0.4 mM, 37° C., 60 min
Experimental: as §1

For CCCCCCOC(=O)Nc1nc(=O)n([C@@H]2O[C@H](C)[C@@H](O)[C@H]2O)cc1F [Example 13, 5'-deoxy-5-fluoro-N^4-(hexyloxycarbonyl)cytidine], which “Acylamidase activity, Monkey Liver” value (monkey liver acylamidase) is on record?
The value was 47 nmol/mg protein/hr.

And the LD50 at 504 h [1]?
Its LD50 at 504 h is > 500 mg/kg.

And the Fecal observation ([2]; Exp. 1, 1.5 mmol/kg/day x 21, oral)?
Its Fecal observation is “N”.

What about the inhibition in vivo at 0.13 mmol/kg/day ([2]; Mus musculus, po, Exp. 1, 0.13 mmol/kg/day x 21, oral, read-out: % Growth inhibition) of the same molecule?
Its inhibition in vivo at 0.13 mmol/kg/day is 59%.

What about the inhibition in vivo at 0.3 mmol/kg/day ([2]; Mus musculus, po, Exp. 1, 0.3 mmol/kg/day x 21, oral, read-out: % Growth inhibition) of the same molecule?
Its inhibition in vivo at 0.3 mmol/kg/day is 66%.

What about the inhibition in vivo at 0.67 mmol/kg/day ([2]; Mus musculus, po, Exp. 1, 0.67 mmol/kg/day x 21, oral, read-out: % Growth inhibition) of the same molecule?
The inhibition in vivo at 0.67 mmol/kg/day was 79%.

And the inhibition in vivo at 1 mmol/kg/day ([2]; Mus musculus, po, Exp. 1, 1.0 mmol/kg/day x 21, oral, read-out: % Growth inhibition)?
The inhibition in vivo at 1 mmol/kg/day was 91%.

And the inhibition in vivo at 1.5 mmol/kg/day ([2]; Mus musculus, po, Exp. 1, 1.5 mmol/kg/day x 21, oral, read-out: % Growth inhibition)?
The inhibition in vivo at 1.5 mmol/kg/day was 94%.

And the Adipose tissue wt. (colon 26 carcinoma; 0.125 mmol/kg x 7, from day 21)?
Its Adipose tissue wt. is 22 mg.

What about the Carcass wt. change (colon 26 carcinoma; 0.125 mmol/kg x 7, from day 21) of the same molecule?
Its Carcass wt. change is 1.6 g.

What about the Serum glucose (colon 26 carcinoma; 0.125 mmol/kg x 7, from day 21) of the same molecule?
The Serum glucose was 118 mg/dL.

What about the Tumor wt. change (colon 26 carcinoma; 0.125 mmol/kg x 7, from day 21) of the same molecule?
Its Tumor wt. change is 1.24 g.

What about the “Serum IAP” value (colon 26 carcinoma; 0.125 mmol/kg x 7, from day 21) of the same molecule?
The value was 1195 µg/mL.

And the Adipose tissue wt. (colon 26 carcinoma; 0.25 mmol/kg x 7, from day 21)?
The Adipose tissue wt. was 42 mg.

And the Carcass wt. change (colon 26 carcinoma; 0.25 mmol/kg x 7, from day 21)?
Its Carcass wt. change is 3.4 g.

What about the Serum glucose (colon 26 carcinoma; 0.25 mmol/kg x 7, from day 21) of the same molecule?
Its Serum glucose is 120 mg/dL.

And the Tumor wt. change (colon 26 carcinoma; 0.25 mmol/kg x 7, from day 21)?
Its Tumor wt. change is 0.91 g.

And the “Serum IAP” value (colon 26 carcinoma; 0.25 mmol/kg x 7, from day 21)?
Its value is 1020 µg/mL.

What about the Adipose tissue wt. (colon 26 carcinoma; 0.5 mmol/kg x 7, from day 21) of the same molecule?
The Adipose tissue wt. was 63 mg.

And the Carcass wt. change (colon 26 carcinoma; 0.5 mmol/kg x 7, from day 21)?
The Carcass wt. change was 4.2 g.

And the Serum glucose (colon 26 carcinoma; 0.5 mmol/kg x 7, from day 21)?
Its Serum glucose is 147 mg/dL.

And the Tumor wt. change (colon 26 carcinoma; 0.5 mmol/kg x 7, from day 21)?
Its Tumor wt. change is 0.79 g.

And the “Serum IAP” value (colon 26 carcinoma; 0.5 mmol/kg x 7, from day 21)?
Its value is 805 µg/mL.

What about the Adipose tissue wt. (colon 26 carcinoma; 1 mmol/kg x 7, from day 21) of the same molecule?
Its Adipose tissue wt. is 85 mg.

What about the Carcass wt. change (colon 26 carcinoma; 1 mmol/kg x 7, from day 21) of the same molecule?
The Carcass wt. change was 5.6 g.

What about the Serum glucose (colon 26 carcinoma; 1 mmol/kg x 7, from day 21) of the same molecule?
The Serum glucose was 127 mg/dL.

And the Tumor wt. change (colon 26 carcinoma; 1 mmol/kg x 7, from day 21)?
Its Tumor wt. change is 0.006 g.

What about the “Serum IAP” value (colon 26 carcinoma; 1 mmol/kg x 7, from day 21) of the same molecule?
Its value is 795 µg/mL.

What about the “cachexia (in words)” value (colon 26 carcinoma; daily for 7 times from day 21) of the same molecule?
Its value is “improved cachexia”.

And the “tumor growth (in words)” value (colon 26 carcinoma; daily for 7 times from day 21)?
The value was “suppressed tumor growth”.

What about the “Plasma 5'-DFUR AUC” value [3] of the same molecule?
The value was 1960 ng·h/mL.

What about the “Acylamidase activity, Human Liver” value (human liver acylamidase) of the same molecule?
Its value is 220 nmol/mg protein/hr.

From patent publication US5472949A, “N^4 -(substituted-oxycarbonyl)-5'-deoxy-5-fluorocytidine compounds, compositions and methods of using same” (Hoffmann-La Roche Inc., priority 1992, dated 1995)
